Test results as given in publication PMC6273963, “Design, Synthesis, and Biological Evaluation of Some Novel Pyrrolizine Derivatives as COX Inhibitors with Anti-Inflammatory/Analgesic Activities and Low Ulcerogenic Liability” (Molecules, 2016).
Entries after “also recorded” stand apart in the source; their conditions may differ.

What was measured:
[1] = biological target: T1, COX-2 (human recombinant) (Homo sapiens, UniProt P35354); experiment: COX colorimetric inhibitor screening assay, COX-2; settings: for SI (COX-2 selectivity index = IC50 of COX-1/IC50 of COX-2): in vitro
T1 sequence (P35354 18-604): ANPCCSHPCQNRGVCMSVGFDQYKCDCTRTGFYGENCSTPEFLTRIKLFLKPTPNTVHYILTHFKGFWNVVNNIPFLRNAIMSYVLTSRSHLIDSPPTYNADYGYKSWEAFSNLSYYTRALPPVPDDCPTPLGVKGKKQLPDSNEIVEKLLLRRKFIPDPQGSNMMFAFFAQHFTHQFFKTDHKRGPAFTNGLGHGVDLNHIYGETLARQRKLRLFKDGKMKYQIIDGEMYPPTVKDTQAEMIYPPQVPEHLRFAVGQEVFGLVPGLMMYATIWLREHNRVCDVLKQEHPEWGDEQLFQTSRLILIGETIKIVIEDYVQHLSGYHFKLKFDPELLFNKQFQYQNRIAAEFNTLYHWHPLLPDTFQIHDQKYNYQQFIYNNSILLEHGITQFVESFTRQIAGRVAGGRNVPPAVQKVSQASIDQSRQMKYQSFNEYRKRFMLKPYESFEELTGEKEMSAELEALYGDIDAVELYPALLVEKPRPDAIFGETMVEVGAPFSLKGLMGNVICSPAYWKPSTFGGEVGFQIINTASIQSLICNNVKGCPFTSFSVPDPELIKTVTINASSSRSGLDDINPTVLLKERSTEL

rat stomach mucosa = experiment: Acute ulcerogenicity study; format: in vivo; settings: oral, 0.48 mmol/kg; for Ulcerogenicity UI (ulcer index): three days, n = 6
Method: GIT toxicity is the main serious side effect of the NSAIDs. In this work, the ulcerogenicity of the novel compounds 12–19 was evaluated according to the previous reported methodology. The tested compounds 12–19 and ibuprofen were given orally in a dose of 0.48 mmol/kg.
(§1) Adult albino rats of both sex weighing 100–140 g were used in evaluation of the anti-inflammatory, analgesic, ulcerogenic activity in addition to the histopathological study of the new pyrrolizines 12–19. Animal ethical use clearance was obtained from the Ethical Committee at the College of Pharmacy, Umm Al-Qura University. Normalization of the animals with laboratory conditions were achieved by keeping them in laboratory one week before starting the experiments. Standard rat pellet diet was used for feeding animals and water ad libitum.
GIT toxicity was evaluated according to the previous report. Adult albino rats of both sexes were divided into groups of six animals each. The test compounds were dissolved first in 0.5 mL DMSO, then CMC (1%) was added dropwise with trituration. Rats were fasted 20 h before drug administration. The eight tested compounds and ibuprofen were given orally in a dose of 0.24 and 0.48 mmol/kg/day suspended in 1% CMC, while the control group received vehicle (1% CMC containing few drops of DMSO). Rats were then fasted for 2 h, allowed to feed for 2 h then fasted again for another 20 h. Other doses were given in the second and third days. In the fourth day, Pentobarbital (60 mg/kg IP) was used to induce deep anesthesia then rats were sacrificed. The stomachs were removed, opened along with the greater curvature and rinsed with 0.9% saline. The number of mucosal damages (red spots) were counted using magnifying lens and their severity (ulcerogenic severity) was graded in a scale from 0 to 3 as follows: (0) normal (no injury), (0.5) red coloration, (1) spot ulcer, (1.5) hemorrhagic streaks, (2) ulcer > 3 mm, (3) ulcer > 5 mm. The ulcer index was calculated using the following equation ulcer index (UI) = UN + US + UP/10, where UN is the average number pf ulcers per animal, US is the average of severity score, UP is the percent of animal with ulcer.

COX-1 (ovine) = biological target: T2, COX-1 (ovine) (Ovis aries, UniProt P05979); experiment: COX colorimetric inhibitor screening assay, COX-1
T2 sequence (P05979 25-600): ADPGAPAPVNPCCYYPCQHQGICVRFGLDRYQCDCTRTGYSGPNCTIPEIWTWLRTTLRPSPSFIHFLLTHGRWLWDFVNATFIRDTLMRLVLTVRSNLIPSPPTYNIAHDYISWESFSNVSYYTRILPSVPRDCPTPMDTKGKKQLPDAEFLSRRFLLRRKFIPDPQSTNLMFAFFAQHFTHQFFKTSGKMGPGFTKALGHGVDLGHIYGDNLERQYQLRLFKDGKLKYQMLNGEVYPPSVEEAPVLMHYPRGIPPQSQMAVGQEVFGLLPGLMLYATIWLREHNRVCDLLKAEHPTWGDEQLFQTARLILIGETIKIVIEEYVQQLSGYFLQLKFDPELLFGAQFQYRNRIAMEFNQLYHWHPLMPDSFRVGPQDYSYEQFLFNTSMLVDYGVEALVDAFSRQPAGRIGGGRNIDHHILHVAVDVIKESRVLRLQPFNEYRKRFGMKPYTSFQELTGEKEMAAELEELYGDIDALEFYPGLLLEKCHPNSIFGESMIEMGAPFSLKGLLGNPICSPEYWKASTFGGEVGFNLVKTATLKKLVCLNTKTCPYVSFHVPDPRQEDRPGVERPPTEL

thermal pain (hot plate) = experiment: Hot-plate test (analgesic activity); format: in vivo, rat; settings: IP; for analgesic potency relative to ibuprofen: 0.48 mmol/kg; for analgesic activity (in words): 0.24 and 0.48 mmol/kg, 2 h after injection, compared with ibuprofen
Method: A hot-plate was used to induce thermal pain and the cutoff time was fixed to 15 s [30]. […] The analgesic activity of the novel pyrrolizines were carried out using the thermal model (hot-plate test) according to a previous report [30]. An electronically controlled hot-plate (Harvard Apparatus Ltd., Kent, UK) was used and the cut-off time was 15 s and the temperature was adjusted to 52 ± 0.1 °C. Animals were then divided into groups of six animal each. Rats were assigned numbers of 1–6 in each group. The reference drug was given intraperitoneally at a dose of 50 mg/kg (0.24 mmol/kg) and 100 mg/kg (0.48 mmol/kg). […] The response latencies (time elapsed until licking paw or jumping) were measured and expressed as mean ± SEM. The percent changes (analgesic effects) of the tested compounds were calculated as percent change in latencies divided by baseline time (100 × (T1 − T0)/T0) and results were expressed as % change ± SEM, Figure 6.

[2] = test system: stomach mucosa, submucosa and mucosal glands; experiment: Histopathological study of rat stomach; format: in vivo; settings: rats of the ulcerogenicity test, haematoxylin and eosin stain
Excerpt: The stomachs of the rats used in ulcerogenicity test were subjected to a histopathological study to visualize the deep effects of ibuprofen and tested compounds on the stomach mucosa, submucosa and mucosal glands. The specimens were stained with haematoxylin and eosin stain [33].
The study investigated the deep effect of the tested compounds on the mucosa, submucosa and mucosal gland. The stomachs which were opened longitudinally along the greater curvature were used and the specimens were taken from the stomachs of all cases. These specimens were fixed in 10% formalin solution for 72 h. The samples were processed and embedded in paraffin wax. Microtomy was done and 5 microns tissue sections were obtained and mounted on clean glass slides.

[3] = test system: carrageenan-induced rat paw edema; experiment: Carrageenan-induced rat paw edema model (anti-inflammatory activity); format: in vivo; design: key to Potency (anti-inflammatory activity of tested compound/ibuprofen): ratio of % inhibition of edema (compound / ibuprofen); ibuprofen = 1.00; settings: for % Inhibition in Edema Thickness 1 h: 1 h after induction of inflammation; for % Inhibition in Edema Thickness 1 h / % Inhibition in Edema Thickness 2 h / % Inhibition in Edema Thickness 3 h: IP, dose molecularly equivalent to ibuprofen, n = 6; for % Inhibition in Edema Thickness 2 h: 2 h after induction of inflammation; for % Inhibition in Edema Thickness 3 h: 3 h after induction of inflammation; for Potency (anti-inflammatory activity of tested compound/ibuprofen): after 3 h of induction of inflammation, relative to ibuprofen; for anti-inflammatory activity (in words): compared with ibuprofen and parent compound 12
Excerpt: The carrageenan-induced rat paw edema model was utilized to investigate the anti-inflammatory activity of compounds 12–19 relative to ibuprofen as a reference drug.
as §1
The anti-inflammatory activity of the novel compounds 12–19 was evaluated in comparison with ibuprofen as a standard, using a rat paw edema model as described by Winter et al.. Adult albino rats of both sexes (100–140 gm) were used. Rats were uniformly hydrated by giving 3 mL water for each rat through gastric inoculation to reduce variability to edema response. Animals were then divided into groups of six animal each. The control group was given saline solution containing few drops of sodium carboxymethyl cellulose (CMC) 1% and DMSO. Ibuprofen (50 and 100 mg/kg) was given as standard drug. The new compounds 12–19 in a dose molecularly equivalent to ibuprofen were dissolved in 0.5 mL DMSO and CMC 1% was added dropwise with continuous triturating to complete the specified volume. The tested compounds were administered intraperitoneally (IP). The induction of inflammation was achieved by subcutaneous (SC) injection of carrageenan-sodium gel, into the sub-plantar region of the right hind paw. The dorsoventral diameter (thickness) of the right and left hind paw of each rat was measured using digital calipers with accuracy of 0.01 mm (Cole-Parmer, Vernon Hills, IL, USA). The thickness of edema was measured 1, 2 and 3 h after induction of inflammation. The left hind paw diameter served as a control for the degree of inflammation in the right hind paw. The changes in the edema thickness were expressed as mean ± SEM, Figure 4. The anti-inflammatory activity was calculated as % inhibition of inflammation = (1 − Lt/Lc) × 100. Where Lt is the mean increase in paw thickness in rats treated with the tested compounds and Lc is the mean increase in paw thickness in control group. Data were collected, and statistically analyzed by One way ANOVA followed by student-Newman-Keuls multiple comparison test, Table 2.

Row | SMILES | IC50 [1] | SI (COX-2 selectivity index = IC50 of COX-1/IC50 of COX-2) [1] | Ulcerogenicity UI (ulcer index) (rat stomach mucosa) | Ulcerogenicity % Protection (% inhibition of ulcer relative to ibuprofen) (rat stomach mucosa) | IC50 (COX-1 (ovine)) | analgesic potency relative to ibuprofen (thermal pain (hot plate)) | analgesic activity (in words) (thermal pain (hot plate)) | histopathological findings in stomach transverse sections [2] | % Inhibition in Edema Thickness 1 h [3] | % Inhibition in Edema Thickness 2 h [3] | % Inhibition in Edema Thickness 3 h [3] | Potency (anti-inflammatory activity of tested compound/ibuprofen) [3] | anti-inflammatory activity (in words) [3]
1 | N#Cc1c(N)c(C(=O)Nc2ccc(Br)cc2)n2c1CCC2 [Compound 12, 6-Amino-N-(4-bromophenyl)-7-cyano-2,3-dihydro-1H-pyrrolizine-5-carboxamide] | 1270 nM | 3.64 | 4.66 | 66.38% | 4640 nM | 1.03 to 1.27 times | higher analgesic activity than ibuprofen | variable degrees of necrosis with some leukocytes infiltration | 21.20% | 37.40% | 44.79% | 1.10 | higher anti-inflammatory activity than that of ibuprofen
2 | N#Cc1c(NC(=O)CCl)c(C(=O)Nc2ccc(Br)cc2)n2c1CCC2 [Compound 13, N-(4-Bromophenyl)-6-(2-chloroacetamido)-7-cyano-2,3-dihydro-1H-pyrrolizine-5-carboxamide] | 1640 nM | 3.48 | 4.41 | 68.18% | 5690 nM | 1.03 to 1.27 times | higher analgesic activity than ibuprofen | variable degrees of necrosis with some leukocytes infiltration | 16.13% | 35.43% | 52.31% | 1.28 | the highest anti-inflammatory activity
3 | CN1CCN(CC(=O)Nc2c(C#N)c3n(c2C(=O)Nc2ccc(Br)cc2)CCC3)CC1 [Compound 14, N-(4-Bromophenyl)-7-cyano-6-(2-(4-methylpiperazin-1-yl)acetamido)-2,3-dihydro-1H-pyrrolizine-5-carbox-amide] | 1090 nM | 3.21 | 4.66 | 66.38% | 3500 nM |  | lower than that of ibuprofen; also recorded: the least active | variable degrees of necrosis with some leukocytes infiltration | 8.30% | 9.84% | 16.37% | 0.40 | the least active one
4 | N#Cc1c2c(n3c1CCC3)C(=O)N(c1ccc(Br)cc1)CC(=O)N2 [Compound 15, 4-(4-Bromophenyl)-2,5-dioxo-1,2,3,4,5,7,8,9-octahydro-[1,4]diazepino[5,6-b]pyrrolizine-10-carbonitrile] | 1060 nM |  |  |  | 3370 nM |  | lower than that of ibuprofen | little histopathological effects such as congested blood vessels and variable degrees of leukocytes infiltration | 10.60% | 16.54% | 24.91% | 0.61 | 
5 | N#Cc1c(NC(=O)c2ccccc2)c(C(=O)Nc2ccc(Br)cc2)n2c1CCC2 [Compound 16, 6-Benzamido-N-(4-bromophenyl)-7-cyano-2,3-dihydro-1H-pyrrolizine-5-carboxamide] | 850 nM | 2.89 | 2.26 | 83.69% | 2450 nM | 1.03 to 1.27 times | higher analgesic activity than ibuprofen; also recorded: good activity comparable to that of ibuprofen | normal mucosal glands with no histopathological effects | 29.95% | 37.80% | 50.58% | 1.24 | 
6 | CC(C)Cc1ccc(C(C)C(=O)O)cc1 (centres unmarked) [Ibuprofen, reference compound] |  |  | 13.86 | 0% |  |  |  | severe damage represented by leukocytes infiltration and necrosis in the mucosa layer with hypertrophy in mucosal glands | 25.81% | 33.46% | 40.82% | 1.00 | 
